Laboratory results as given in US20200023073A1, “A NEW DRUG DELIVERY SYSTEM FOR TREATMENT OF DISEASE” (SINTEF TTO AS, priority 2016, published 2020).

Test system: MDA-MB-231 cells
Assay: AlamarBlue Cell Viability Assay
Assay type: cell-based, human
Conditions: MDA-MB-231, various concentrations, 24, 48 and 72 hours
Protocol: The cytotoxic effect of empty PBCA NPs, PBCA NPs with encapsulated cabazitaxel as well as free cabazitaxel was studied on breast cancer cells (MDA-MB-231 cells=human epithelial, mammary adenocarcinoma cell line). AlamarBlueR Cell Viability Assay was used to evaluate cell viability. Cells were seeded in density 5000 cells/200 μl medium for each well. After 3 days old medium was removed from wells and both encapsulated cabazitaxel and free cabazitaxel was diluted in medium and added to the well. Concentration of NPs was ranged from 0.1 ng/ml to 1000 ng/ml. Concentrations of free cabazitaxel was chosen to match the concentrations of cabazitaxel in NPs. Control wells contained cells in growth medium.
The well plates were incubated for 24, 48 and 72 hours at 37° C. and 5% CO2, before the medium was removed from the well followed by 3 times washing with fresh growth medium. Growth medium containing 10% of alamar Blue assay was added into each well and the plates incubated for another 3 hours at 37° C. and 5% CO2, and the fluorescence intensity measured by microplate reader (excitation/emission at 550/590 nm).

SMILES: CO[C@H]1C(=O)[C@]2(C)[C@@H](OC)C[C@H]3OC[C@@]3(OC(C)=O)[C@H]2[C@H](OC(=O)c2ccccc2)[C@]2(O)C[C@H](OC(=O)[C@H](O)[C@@H](NC(=O)OC(C)(C)C)c3ccccc3)C(C)=C1C2(C)C [free cabazitaxel, cabazitaxel]
- response of cell viability to treatment: dose-responsive manner
